Measured values from patent US20110144159A1, “ETHER BENZYLIDENE PIPERIDINE ARYL CARBOXAMIDE COMPOUNDS USEFUL AS FAAH INHIBITORS” (Pfizer Inc, priority 2008, published 2011).

Each molecule was assayed against T1, Human FAAH (Homo sapiens, UniProt O00519) (assay: FAAH assay (glutamate dehydrogenase-coupled, oleamide substrate, absorbance at 340 nm)). Settings: further compounds, read-out: hFAAH_Kinact/Ki—StL.
T1 construct: made in house
T1 sequence (O00519 32-579 limits assumed): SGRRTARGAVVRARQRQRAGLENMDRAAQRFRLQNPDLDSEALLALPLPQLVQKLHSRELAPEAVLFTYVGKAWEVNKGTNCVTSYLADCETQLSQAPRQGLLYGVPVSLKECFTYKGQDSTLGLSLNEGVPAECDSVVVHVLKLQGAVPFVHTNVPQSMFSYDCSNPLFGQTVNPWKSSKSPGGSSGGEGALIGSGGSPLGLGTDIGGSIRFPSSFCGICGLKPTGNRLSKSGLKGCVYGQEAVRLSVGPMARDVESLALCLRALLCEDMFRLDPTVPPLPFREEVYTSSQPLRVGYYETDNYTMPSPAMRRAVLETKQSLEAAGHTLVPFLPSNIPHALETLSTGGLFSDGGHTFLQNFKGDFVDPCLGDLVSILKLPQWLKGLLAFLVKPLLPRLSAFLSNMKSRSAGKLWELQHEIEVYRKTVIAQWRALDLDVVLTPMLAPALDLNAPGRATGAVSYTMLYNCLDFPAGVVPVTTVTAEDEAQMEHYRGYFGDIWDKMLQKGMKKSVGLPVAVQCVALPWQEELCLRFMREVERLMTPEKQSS
Assay type: biochemical
Method in brief: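 Human FAAH (1-4 nM) with 50 μM oleamide, coupled to glutamate dehydrogenase/NADH, pH 7.4, 7.5% DMSO and EtOH, 30° C; A340 read every 30 s for 90 min. Irreversible inhibition fitted for kobs per concentration, then Ki and kinact from kobs vs. [I].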

Molecule | kinact/KI [M⁻¹ s⁻¹]
COc1cnc(NC(=O)N2CCC(=Cc3cccc(OCC4CCCCO4)c3)CC2)cn1 (centres unmarked) [N-(5-methoxypyrazin-2-yl)-4-[3-(tetrahydro-2H-pyran-2-ylmethoxy)benzylidene]piperidine-1-carboxamide] | 404
COc1ccc(NC(=O)N2CCC(=Cc3cccc(OCC4CCCCO4)c3)CC2)cn1 (centres unmarked) [N-(6-methoxypyridin-3-yl)-4-[3-(tetrahydro-2H-pyran-2-ylmethoxy)benzylidene]piperidine-1-carboxamide] | 950
Cc1ccc(NC(=O)N2CCC(=Cc3cccc(OCC4CCCCO4)c3)CC2)cn1 (centres unmarked) [N-(6-methylpyridin-3-yl)-4-[3-(tetrahydro-2H-pyran-2-ylmethoxy)benzylidene]piperidine-1-carboxamide] | 536
O=C(Nc1cccnc1)N1CCC(=Cc2cccc(OCC3CCCCO3)c2)CC1 (centres unmarked) [N-pyridin-3-yl-4-[3-(tetrahydro-2H-pyran-2-ylmethoxy)benzylidene]piperidine-1-carboxamide] | 3130

Same assay, conditions: irreversible inhibition potency

Molecule | hFAAH KInact/K [M⁻¹ s⁻¹]
COc1ccc(CCOc2cccc(C=C3CCN(C(=O)Nc4cccnn4)CC3)c2)cc1 [Example 77, 4-{3-[2-(4-methoxyphenyl)ethoxy]benzylidene}-N-pyridazin-3-ylpiperidine-1-carboxamide] | 207
O=C(Nc1cccnn1)N1CCC(=Cc2cccc(OCCc3ccsc3)c2)CC1 [Example 78, N-pyridazin-3-yl-4-{3-[2-(3-thienyl)ethoxy]benzylidene}piperidine-1-carboxamide] | 35803
O=C(Nc1cccnn1)N1CCC(=Cc2cccc(OCCN3CCCCCC3)c2)CC1 [Example 80, 4-[3-(2-azepan-1-ylethoxy)benzylidene]-N-pyridazin-3-ylpiperidine-1-carboxamide] | 325
CC1(C)CCC(Oc2cccc(C=C3CCN(C(=O)Nc4cccnn4)CC3)c2)CC1 [Example 81, 4-{3-[(4,4-dimethylcyclohexyl)oxy]benzylidene}-N-pyridazin-3-ylpiperidine-1-carboxamide] | 3744
O=C(Nc1cccnn1)N1CCC(=Cc2cccc(OCC3CCC(F)(F)CC3)c2)CC1 [Example 82, 4-{3-[(4,4-difluorocyclohexyl)methoxy]benzylidene}-N-pyridazin-3-ylpiperidine-1-carboxamide] | 6850
O=C(Nc1cccnn1)N1CCC(=Cc2cccc(OCCC3CC3)c2)CC1 [Example 83, 4-[3-(2-cyclopropylethoxy)benzylidene]-N-pyridazin-3-ylpiperidine-1-carboxamide] | 22138
O=C(Nc1cccnn1)N1CCC(=Cc2cccc(OCCc3cccnc3)c2)CC1 [Example 84, N-pyridazin-3-yl-4-[3-(2-pyridin-3-ylethoxy)benzylidene]piperidine-1-carboxamide] | 10747
O=C(Nc1cccnn1)N1CCC(=Cc2cccc(OCC3CCCC3)c2)CC1 [Example 86, 4-[3-(cyclopentylmethoxy)benzylidene]-N-pyridazin-3-ylpiperidine-1-carboxamide] | 6267
O=C(Nc1cccnn1)N1CCC(=Cc2cccc(OCCc3ccccn3)c2)CC1 [Example 87, N-pyridazin-3-yl-4-[3-(2-pyridin-2-ylethoxy)benzylidene]piperidine-1-carboxamide] | 3485
O=C(Nc1cccnn1)N1CCC(=Cc2cccc(OCc3cc4ccccc4o3)c2)CC1 [Example 88, 4-[3-(1-benzofuran-2-ylmethoxy)benzylidene]-N-pyridazin-3-ylpiperidine-1-carboxamide] | 629
O=C(Nc1cccnn1)N1CCC(=Cc2cccc(OCCc3cccc(F)c3)c2)CC1 [Example 89, 4-{3-[2-(3-fluorophenyl)ethoxy]benzylidene}-N-pyridazin-3-ylpiperidine-1-carboxamide] | 25980
CC(Cc1ccccc1)Oc1cccc(C=C2CCN(C(=O)Nc3cccnn3)CC2)c1 (centres unmarked) [Example 91, 4-[3-(1-methyl-2-phenylethoxy)benzylidene]-N-pyridazin-3-ylpiperidine-1-carboxamide] | 7398
O=C(Nc1cccnn1)N1CCC(=Cc2cccc(OCCc3ccc(F)cc3)c2)CC1 [Example 92, 4-{3-[2-(4-fluorophenyl)ethoxy]benzylidene}-N-pyridazin-3-ylpiperidine-1-carboxamide] | 5205
CC1(COc2cccc(C=C3CCN(C(=O)Nc4cccnn4)CC3)c2)CC1 [Example 93, 4-{3-[(1-methylcyclopropyl)methoxy]benzylidene}-N-pyridazin-3-ylpiperidine-1-carboxamide] | 2090
O=C(Nc1cccnn1)N1CCC(=Cc2cccc(OCCCc3cnoc3)c2)CC1 [Example 94, 4-[3-(3-isoxazol-4-ylpropoxy)benzylidene]-N-pyridazin-3-ylpiperidine-1-carboxamide] | 27713
CC(C)(F)CCOc1cccc(C=C2CCN(C(=O)Nc3cccnn3)CC2)c1 [Example 95, 4-[3-(3-fluoro-3-methylbutoxy)benzylidene]-N-pyridazin-3-ylpiperidine-1-carboxamide] | 3869
O=C(Nc1cccnn1)N1CCC(=Cc2cccc(OC3CCC(C(F)(F)F)CC3)c2)CC1 (centres unmarked) [Example 97, N-pyridazin-3-yl-4-(3-{[4-(trifluoromethyl)cyclohexyl]oxy}benzylidene)piperidine-1-carboxamide] | 3238
CCC(COC)Oc1cccc(C=C2CCN(C(=O)Nc3cccnn3)CC2)c1 (centres unmarked) [Example 98, 4-{3-[1-(methoxymethyl)propoxy]benzylidene}-N-pyridazin-3-ylpiperidine-1-carboxamide] | 276
CC(COc1cccc(C=C2CCN(C(=O)Nc3cccnn3)CC2)c1)CC(F)(F)F (centres unmarked) [Example 99, N-pyridazin-3-yl-4-[3-(4,4,4-trifluoro-2-methylbutoxy)benzylidene]piperidine-1-carboxamide] | 10896
O=C(Nc1cccnn1)N1CCC(=Cc2cccc(OCC3Cc4ccccc4O3)c2)CC1 (centres unmarked) [Example 100, 4-[3-(2,3-dihydro-1-benzofuran-2-ylmethoxy)benzylidene]-N-pyridazin-3-ylpiperidine-1-carboxamide] | 2505
CC1CCC(COc2cccc(C=C3CCN(C(=O)Nc4cccnn4)CC3)c2)CC1 (centres unmarked) [Example 101, 4-{3-[(4-methylcyclohexyl)methoxy]benzylidene}-N-pyridazin-3-ylpiperidine-1-carboxamide] | 3281
CC1CN(CCOc2cccc(C=C3CCN(C(=O)Nc4cccnn4)CC3)c2)CC(C)O1 (centres unmarked) [Example 102, 4-{3-[2-(2,6-dimethylmorpholin-4-yl)ethoxy]benzylidene}-N-pyridazin-3-ylpiperidine-1-carboxamide] | 207
O=C(Nc1cccnn1)N1CCC(=Cc2cccc(OCC3CCC(C(F)(F)F)CC3)c2)CC1 (centres unmarked) [Example 103, N-pyridazin-3-yl-4-(3-{[4-(trifluoromethyl)cyclohexyl]methoxy}benzylidene)piperidine-1-carboxamide] | 1537
O=C(Nc1cccnn1)N1CCC(=Cc2cccc(OCC3CCCCO3)c2)CC1 (centres unmarked) [Example 104, N-pyridazin-3-yl-4-[3-(tetrahydro-2H-pyran-2-ylmethoxy)benzylidene]piperidine-1-carboxamide] | 4050
Cc1ncsc1CCOc1cccc(C=C2CCN(C(=O)Nc3cccnn3)CC2)c1 [Example 105, 4-{3-[2-(4-methyl-1,3-thiazol-5-yl)ethoxy]benzylidene}-N-pyridazin-3-ylpiperidine-1-carboxamide] | 6410
O=C(Nc1cccnn1)N1CCC(=Cc2cccc(OC3CCC(F)(F)CC3)c2)CC1 [Example 106, 4-{3-[(4,4-difluorocyclohexyl)oxy]benzylidene}-N-pyridazin-3-ylpiperidine-1-carboxamide] | 16400
N-pyridazin-3-yl-4-[3-(2-pyridin-4-ylethoxy)benzylidene]piperidine-1-carboxamide [Example 79] | 3834
N-pyridazin-3-yl-4-[3-(pyridin-2-ylmethoxy)benzylidene]piperidine-1-carboxamide [Example 46] | 353
